Assay results: patent publication US20200325177A1, “METHODS OF MAKING STREPTOGRAMIN COMPOSITIONS AND THE USE THEREOF” (THE REGENTS OF THE UNIVERSITY OF CALIFORNIA, priority 2017, published 2020)
Values after ≈ are worked out from the molar mass of the structure shown. Read-outs that look alike come from different tables or passages of the source.

Key:
Type in all cases: cell-based
[1] = system: S. aureus Linezolid-resistant; cfr; experiment: MIC, Gram-positive bacteria: S. aureus Linezolid-resistant; cfr; conditions: Staphylococcus aureus, column 9, read-out: Minimal Inhibitory Concentration (MIC) S. aureus Linezolid-resistant
[2] = system: P. aeruginosa MDR clinical isolate; experiment: MIC, Gram-negative bacteria: P. aeruginosa MDR clinical isolate; conditions: Pseudomonas aeruginosa, read-out: Minimal Inhibitory Concentration (MIC) P. aeruginosa MDR clinical isolate
E. faecium VRE; vanA = experiment: MIC, Gram-positive bacteria: E. faecium VRE; vanA; conditions: Enterococcus faecium, column 3, read-out: Minimal Inhibitory Concentration (MIC) E. faecium VRE
E. faecalis = experiment: MIC, Gram-positive bacteria: E. faecalis; conditions: Enterococcus faecalis, column 1, read-out: Minimal Inhibitory Concentration (MIC) E. faecalis
Gram-Negative Organisms = experiment: microbe, parasite or virus in culture
E. faecium ATCC 35667 = experiment: MIC, Gram-positive bacteria: E. faecium ATCC 35667; conditions: Enterococcus faecium, ATCC35667, column 2, read-out: Minimal Inhibitory Concentration (MIC) E. faecium ATCC 35667
P. aeruginosa ATCC 27853 = experiment: MIC, Gram-negative bacteria: P. aeruginosa ATCC 27853; conditions: Pseudomonas aeruginosa, ATCC27853, read-out: Minimal Inhibitory Concentration (MIC) P. aeruginosa ATCC 27853
S. aureus = experiment: MIC, Gram-positive bacteria: S. aureus (strains not named); conditions: Staphylococcus aureus, read-out: Minimal Inhibitory Concentration (MIC) S. aureus
S. pneumoniae = experiment: MIC, Gram-positive bacteria: S. pneumoniae; conditions: Streptococcus pneumoniae, column 10, read-out: Minimal Inhibitory Concentration (MIC) S. pneumoniae
H. influenzae ATCC 49247 = experiment: MIC, Gram-negative bacteria: H. influenzae ATCC 49247; conditions: Haemophilus influenzae, ATCC49247, read-out: Minimal Inhibitory Concentration (MIC) H. influenzae ATCC 49247
[3] = system: K. pneumoniae multidrug-resistant; experiment: MIC, Gram-negative bacteria: K. pneumoniae multidrug-resistant; conditions: Klebsiella pneumoniae, read-out: Minimal Inhibitory Concentration (MIC) K. pneumoniae multidrug-resistant
[4] = system: S. aureus Vat A streptogramin; experiment: MIC, Gram-positive bacteria: S. aureus Vat A streptogramin; conditions: Staphylococcus aureus, read-out: Minimal Inhibitory Concentration (MIC) S. aureus Vat A streptogramin
[5] = Acinetobacter baumannii, ATCC19606, read-out: Minimal Inhibitory Concentration (MIC), A. baumannii ATCC 19606
[6] = Escherichia coli, ATCC25922, read-out: Minimal Inhibitory Concentration (MIC), E. coli ATCC 25922
[7] = Escherichia coli, read-out: Minimal Inhibitory Concentration (MIC), E. coli BAS2006, OMP C, OMP F
[8] = Escherichia coli, read-out: Minimal Inhibitory Concentration (MIC), E. coli olC efflux defective
[9] = Escherichia coli, read-out: Minimal Inhibitory Concentration (MIC), E. coli permeability mutant BAS1314, IMP4213ZAB::TN10
[10] = Escherichia coli, read-out: Minimal Inhibitory Concentration (MIC), E. coli ΔompC768, KanR insert
[11] = Klebsiella pneumoniae, ATCC43816, read-out: Minimal Inhibitory Concentration (MIC), K. pneumoniae ATCC 43816
[12] = first unnamed S. aureus column (c4)
[13] = fourth unnamed S. aureus column (c8)
[14] = second unnamed S. aureus column (c6)
[15] = third unnamed S. aureus column (c7)

Structure (SMILES) | MIC [1] | MIC [2] | MIC (E. faecium VRE; vanA) | MIC (E. faecalis) | MIC (Gram-Negative Organisms; [5]) | MIC (Gram-Negative Organisms; [6]) | MIC (Gram-Negative Organisms; [7]) | MIC (Gram-Negative Organisms; [8]) | MIC (Gram-Negative Organisms; [9]) | MIC (Gram-Negative Organisms; [10]) | MIC (Gram-Negative Organisms; [11]) | MIC (E. faecium ATCC 35667) | MIC (P. aeruginosa ATCC 27853) | MIC (S. aureus; [12]) | MIC (S. aureus; [13]) | MIC (S. aureus; [14]) | MIC (S. aureus; [15]) | MIC (S. pneumoniae) | MIC (H. influenzae ATCC 49247) | MIC [3] | further results
CC1=C\[C@@H](O)CC(=O)Cc2nc(c([Si](C)(C)C)o2)C(=O)N2CCC[C@@H]2C(=O)O[C@H](C(C)C)[C@H](C)/C=C/C(=O)NC\C=C\1 [SA0110261] | > 64 µg/mL | > 64 µg/mL | > 64 µg/mL | > 64 µg/mL | > 64 µg/mL | > 64 µg/mL | > 64 µg/mL | 64 µg/mL (≈ 107 µM) | 16 µg/mL (≈ 26.7 µM) | > 64 µg/mL | > 64 µg/mL | 64 µg/mL (≈ 107 µM) | > 64 µg/mL | > 64 µg/mL | 64 µg/mL (≈ 107 µM) | 64 µg/mL (≈ 107 µM) | > 64 µg/mL | 64 µg/mL (≈ 107 µM) | > 64 µg/mL | > 64 µg/mL | MIC [4]: > 64 µg/mL
CC1=C\[C@@H](O)C[C@@H](O)Cc2nc(cs2)C(=O)N2CCC[C@@H]2C(=O)O[C@H](C(C)C)[C@H](C)/C=C/C(=O)NC\C=C\1 [SA0110264] | > 64 µg/mL | > 64 µg/mL | 4 µg/mL (≈ 7.33 µM) | > 64 µg/mL | > 64 µg/mL | > 64 µg/mL | 4 µg/mL (≈ 7.33 µM) | 2 µg/mL (≈ 3.67 µM) | 1 µg/mL (≈ 1.83 µM) | > 64 µg/mL | > 64 µg/mL | 1 µg/mL (≈ 1.83 µM) | > 64 µg/mL | 8 µg/mL (≈ 14.7 µM) | 8 µg/mL (≈ 14.7 µM) | 16 µg/mL (≈ 29.3 µM) | 16 µg/mL (≈ 29.3 µM) | 2 µg/mL (≈ 3.67 µM) | 1 µg/mL (≈ 1.83 µM) | > 64 µg/mL | MIC ([4]; Gram-positive, column 5): > 64 µg/mL
CC1=C\[C@@H](O)CC(N)Cc2nc(cs2)C(=O)N2CCC[C@@H]2C(=O)O[C@H](C(C)C)[C@H](C)/C=C/C(=O)NC\C=C\1 (stereo partly drawn) [SA0110268] | > 64 µg/mL | > 64 µg/mL | > 64 µg/mL | > 64 µg/mL | > 64 µg/mL | > 64 µg/mL | 16 µg/mL (≈ 29.4 µM) | 2 µg/mL (≈ 3.67 µM) | 2 µg/mL (≈ 3.67 µM) | > 64 µg/mL | > 64 µg/mL | 64 µg/mL (≈ 117 µM) | > 64 µg/mL | > 64 µg/mL | > 64 µg/mL | > 64 µg/mL | > 64 µg/mL | 32 µg/mL (≈ 58.7 µM) | 64 µg/mL (≈ 117 µM) | > 64 µg/mL | MIC ([4]; Gram-positive, column 5): > 64 µg/mL
CC1=C\[C@@H](O)CC(=O)Cc2nc(co2)C(=O)N2CCC[C@@H]2C(=O)O[C@H]([C@H](C)CF)[C@H](C)/C=C/C(=O)NC\C=C\1 [SA0110273] | > 64 µg/mL | > 64 µg/mL | 64 µg/mL (≈ 117 µM) | > 64 µg/mL | > 64 µg/mL | > 64 µg/mL | 16 µg/mL (≈ 29.3 µM) | 4 µg/mL (≈ 7.33 µM) | 8 µg/mL (≈ 14.7 µM) | > 64 µg/mL | > 64 µg/mL | 16 µg/mL (≈ 29.3 µM) | > 64 µg/mL | 64 µg/mL (≈ 117 µM) | 32 µg/mL (≈ 58.7 µM) | 64 µg/mL (≈ 117 µM) | 64 µg/mL (≈ 117 µM) | 16 µg/mL (≈ 29.3 µM) | 8 µg/mL (≈ 14.7 µM) | > 64 µg/mL | MIC ([4]; Gram-positive, column 5): > 64 µg/mL
CC1=C\[C@@H](O)C[C@@H](F)Cc2nc(cs2)C(=O)N2CCC[C@@H]2C(=O)O[C@H](C(C)C)[C@H](C)/C=C/C(=O)NC\C=C\1 [SA0110279] | > 64 µg/mL | > 64 µg/mL | 1 µg/mL (≈ 1.83 µM) | > 64 µg/mL | > 64 µg/mL | 32 µg/mL (≈ 58.4 µM) | 0.25 µg/mL (≈ 0.456 µM) | 1 µg/mL (≈ 1.83 µM) | < 0.06 µg/mL | 32 µg/mL (≈ 58.4 µM) | > 64 µg/mL | 0.5 µg/mL (≈ 0.913 µM) | > 64 µg/mL | 0.5 µg/mL (≈ 0.913 µM) | 0.5 µg/mL (≈ 0.913 µM) | 0.5 µg/mL (≈ 0.913 µM) | 1 µg/mL (≈ 1.83 µM) | 1 µg/mL (≈ 1.83 µM) | 0.25 µg/mL (≈ 0.456 µM) | > 64 µg/mL | MIC ([4]; Gram-positive, column 5): 8 µg/mL (≈ 14.6 µM)
